3 molecules from US8012959B2, “Diaminopyrimidinecarboxamide derivative” (Astellas Pharma Inc., priority 2002, dated 2011) can be followed below.

Each structure is given as a SMILES string.

One test has as its target T1, STAT 6 (Homo sapiens, UniProt P42226).
T1 construct: host or cells: H292
T1 sequence (P42226 1-847): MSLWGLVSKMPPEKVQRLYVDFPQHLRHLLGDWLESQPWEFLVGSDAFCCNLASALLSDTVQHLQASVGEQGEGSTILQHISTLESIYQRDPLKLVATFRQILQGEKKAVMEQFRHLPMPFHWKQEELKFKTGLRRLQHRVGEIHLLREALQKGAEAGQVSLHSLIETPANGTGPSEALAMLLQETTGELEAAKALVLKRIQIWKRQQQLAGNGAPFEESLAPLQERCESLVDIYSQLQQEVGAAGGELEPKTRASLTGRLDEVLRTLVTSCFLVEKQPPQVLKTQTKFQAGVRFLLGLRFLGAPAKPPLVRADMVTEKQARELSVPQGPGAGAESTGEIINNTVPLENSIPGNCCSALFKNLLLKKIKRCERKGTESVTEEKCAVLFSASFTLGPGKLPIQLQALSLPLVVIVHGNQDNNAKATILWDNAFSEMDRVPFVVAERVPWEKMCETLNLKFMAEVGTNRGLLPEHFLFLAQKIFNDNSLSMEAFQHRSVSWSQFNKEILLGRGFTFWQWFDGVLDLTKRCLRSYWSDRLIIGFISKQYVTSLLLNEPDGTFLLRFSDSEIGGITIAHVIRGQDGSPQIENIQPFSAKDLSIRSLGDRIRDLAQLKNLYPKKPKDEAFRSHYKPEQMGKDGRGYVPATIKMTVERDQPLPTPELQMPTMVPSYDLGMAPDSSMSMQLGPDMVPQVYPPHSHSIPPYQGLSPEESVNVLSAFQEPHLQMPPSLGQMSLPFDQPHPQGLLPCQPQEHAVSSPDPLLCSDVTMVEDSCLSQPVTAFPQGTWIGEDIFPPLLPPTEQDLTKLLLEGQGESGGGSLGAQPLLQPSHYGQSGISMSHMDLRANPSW
Description: STAT 6 tyrosine phosphorylation in IL-4-stimulated H292 cell (western blotting). To be noted: 1 μM compound, 10 ng/ml human IL-4, disappearance of the about 110 kDa band. It counts as cell-based. The method, then:
Measurement of STAT 6 Tyrosine Phosphorylation
The H292 cell (ATCC) (5×10^5 cells/0.5 ml) was inoculated into a 12 well plate (IWAKI) and cultured overnight, and then stimulation with 10 ng/ml of human IL-4 (Genzyme techne) was carried out. In the case of the evaluation of compounds, compound dilutions were added to the wells 20 minutes before the IL-4 stimulation. Also, regarding the dilution of compounds, dilution was carried out using 10% FBS-containing RPMI 1640 such that the final concentration of DMSO in which each compound was dissolved became 0.1% or less. This was washed three times with ice-cooled physiological phosphate buffer 20 minutes after the IL-4 stimulation. After the washing, 100 μl/well of a cell lysis solution (TNE buffer: 10 mM Tris-HCl pH 7.8, 1% NP-40, 0.15 M NaCl, 1 mM EDTA, 10 μg/ml aprotinin, 1 mM NaF and 1 mM Na3VO4) was added. The cell lysate was recovered, and 15 μl thereof was subjected to western blotting after SDS electrophoresis using an anti-tyrosine phosphorylated STAT 6 antibody (Cell Signaling). Whether or not the tyrosine phosphorylation band of about 110 kDa is disappeared, which is IL-4 stimulation-dependently detected, was judged. Also, uniform transference of the STAT 6 protein was confirmed using the same transfer membrane by western blotting which used an anti-STAT 6 antibody (SantaCruz).
On the technique in general: Immunoblotting shows a protein as a band on a membrane.

For test [1], the system named is antigen-induced eosinophil infiltration. Description: Mouse asthma model (OA-sensitized, antigen-induced eosinophil infiltration in alveolar lavage fluid). Type of test: in vivo. To be noted: hydrochloride, oral administration, 1 mg/kg, for 3 days, female Balb/c mice. On the procedure:
Evaluation Using Mouse Asthma Model
Active sensitization of female Balb/c mice were carried out by intraperitoneally administering ovalbumin (OA) and an adjuvant, aluminum hydroxide gel (alum), twice. Mice were exposed to OA by inhalation 12 days after the initial sensitization and sacrificed by bloodletting 72 hours after the exposure, and then alveolar lavage was carried out. A compound to be tested or a control, 0.5% methyl cellulose, was orally administered for 3 days from before the OA exposure to before the alveolar lavage. After the measurement of total white blood cell count in the alveolar lavage fluid, cell smear preparations were stained to calculate existing ratio of eosinophil based on its morphological characteristics. The total number of eosinophils was calculated from the total white blood cell count and existing ratio of respective kinds of cells.

A further test deals with neutrophil infiltration. Kind of test: SO2 gas-induced intra-alveolar neutrophil infiltration model. It counts as in vivo. The following applies: hydrochloride, oral administration, 10 mg/kg, for 2 days, male C57BL/6 mice, SO2 gas 600 ppm, alveolar lavage fluid. On the procedure:
Evaluation Using SO2 Gas-induced Intra-alveolar Neutrophil Infiltration Model Mouse Asthma Model
Male C57BL/6 mice were exposed to SO2 gas (600 ppm) for 3 hours and sacrificed by bloodletting 48 hours after the exposure, and then alveolar lavage was carried out. After the measurement of total white blood cell count in the alveolar lavage fluid, cell smear preparations were stained to calculate existing ratio of neutrophil based on its morphological characteristics. The number of neutrophils was calculated from the total white blood cell count and existing ratio of respective cells. A compound to be tested or a control, 0.5% methyl cellulose, was orally administered for 2 days from just before the exposure or just after the exposure to before the alveolar lavage.

For the molecule `Cc1cccc(Nc2nc(NCCc3ccc(O)c(Cl)c3)ncc2C(N)=O)c1` [Production Example 99], the “inhibition of STAT 6 tyrosine phosphorylation” value against STAT 6 is on record as “completely inhibited”. Still for that read-out and setting: the entry for `COc1ccccc1CNc1nc(Nc2ccc(N3CCOCC3)cc2)ncc1C(N)=O` [Example 35] is “completely inhibited”. In the case of `NC(=O)c1cnc(Nc2ccc(N3CCOCC3)cc2)nc1NCc1ccccc1` [Example 3, 4-benzylamino-2-{[4-(morpholin-4-yl)phenyl]amino}pyrimidine-5-carboxamide], the “inhibition of antigen-induced eosinophil infiltration” value in test [1] is on record as “about 60%”. Moreover, the “inhibition of STAT 6 tyrosine phosphorylation” value on STAT 6 is on record as “completely inhibited”. Moreover, in the test on neutrophil infiltration, the “inhibition of neutrophil infiltration” value is recorded as “about 70%”.
